From PubChem BioAssay AID1259407 (Chemical Carcinogenesis Research Information System (CCRIS), 2018) come the findings set out here.

The data set deals with CCRIS mutagenicity, Ames/micronucleus/aberration tests. Kind of data set: CCRIS mutagenicity studies.
The mark [1] stands for this setting: Test System: AMES SALMONELLA TYPHIMURIUM, Strain/Indicator: TA98, Metabolic Activation: NONE, Method: PREINCUBATION
Setting [2] is: Test System: AMES SALMONELLA TYPHIMURIUM, Strain/Indicator: TA100, Metabolic Activation: NONE, Method: PREINCUBATION
The mark [3] stands for this setting: Test System: AMES SALMONELLA TYPHIMURIUM, Strain/Indicator: TA1535, Metabolic Activation: NONE, Method: PREINCUBATION

SMILES strings stand for the structures. Activity calls are given as the source filed them. How the calls were made is not given here.

For the compound `Cc1c[nH]c(=S)[nH]c1=O`, the mutagenic call was “inactive; negative” (Test System: AMES SALMONELLA TYPHIMURIUM, Strain/Indicator: TA97, Metabolic Activation: HAMSTER, LIVER, S-9, AROCLOR 1254 (10 OR 30%), Method: PREINCUBATION); “inactive; negative” (Test System: AMES SALMONELLA TYPHIMURIUM, Strain/Indicator: TA97, Metabolic Activation: NONE, Method: PREINCUBATION); “inactive; negative” (Test System: AMES SALMONELLA TYPHIMURIUM, Strain/Indicator: TA97, Metabolic Activation: RAT, LIVER, S-9, AROCLOR 1254 (10 OR 30%), Method: PREINCUBATION); “inactive; negative” (Test System: AMES SALMONELLA TYPHIMURIUM, Strain/Indicator: TA98, Metabolic Activation: HAMSTER, LIVER, S-9, AROCLOR 1254 (10 OR 30%), Method: PREINCUBATION); “inactive; negative” under setting [1]; “inactive; negative” (Test System: AMES SALMONELLA TYPHIMURIUM, Strain/Indicator: TA98, Metabolic Activation: RAT, LIVER, S-9, AROCLOR 1254 (10 OR 30%), Method: PREINCUBATION). For the same compound, the mutagenic call (Test System: AMES SALMONELLA TYPHIMURIUM, Strain/Indicator: TA100, Metabolic Activation: HAMSTER, LIVER, S-9, AROCLOR 1254 (10 OR 30%), Method: PREINCUBATION) was “inactive; negative”; the mutagenic call under setting [2] was “inactive; negative”; the mutagenic call (Test System: AMES SALMONELLA TYPHIMURIUM, Strain/Indicator: TA100, Metabolic Activation: RAT, LIVER, S-9, AROCLOR 1254 (10 OR 30%), Method: PREINCUBATION) is “inactive; negative”; the mutagenic call (Test System: AMES SALMONELLA TYPHIMURIUM, Strain/Indicator: TA1535, Metabolic Activation: HAMSTER, LIVER, S-9, AROCLOR 1254 (10 OR 30%), Method: PREINCUBATION) is “inactive; negative”; the mutagenic call under setting [3] is “inactive; negative”; the mutagenic call (Test System: AMES SALMONELLA TYPHIMURIUM, Strain/Indicator: TA1535, Metabolic Activation: RAT, LIVER, S-9, AROCLOR 1254 (10 OR 30%), Method: PREINCUBATION) is “inactive; negative”.

With `O=C(O)c1ccccc1-c1c2ccc(=O)cc-2oc2cc(O)ccc12`, the mutagenic call reads like this: (End Point: IN VITRO CHROMOSOMAL ABERRATIONS, Test System: CHO-LB CELLS, Metabolic Activation: NONE) “inactive; negative”; (End Point: IN VITRO CHROMOSOMAL ABERRATIONS, Test System: CHO-LB CELLS, Metabolic Activation: RAT, LIVER, S-9, AROCLOR 1254) “inactive; negative”; (Test System: AMES SALMONELLA TYPHIMURIUM, Strain/Indicator: TA98, Metabolic Activation: HAMSTER, LIVER, S-9, AROCLOR 1254 (10%), Method: PREINCUBATION) “inactive; negative”; under setting [1], “inactive; negative”; (Test System: AMES SALMONELLA TYPHIMURIUM, Strain/Indicator: TA98, Metabolic Activation: RAT, LIVER, S-9, AROCLOR 1254 (10%), Method: PREINCUBATION) “inactive; negative”; (Test System: AMES SALMONELLA TYPHIMURIUM, Strain/Indicator: TA100, Metabolic Activation: HAMSTER, LIVER, S-9, AROCLOR 1254 (10%), Method: PREINCUBATION) “inactive; negative”. The mutagenic call was “inactive; negative” under setting [2]; “inactive; negative” (Test System: AMES SALMONELLA TYPHIMURIUM, Strain/Indicator: TA100, Metabolic Activation: RAT, LIVER, S-9, AROCLOR 1254 (10%), Method: PREINCUBATION); “inactive; negative” (Test System: AMES SALMONELLA TYPHIMURIUM, Strain/Indicator: TA1535, Metabolic Activation: HAMSTER, LIVER, S-9, AROCLOR 1254 (10%), Method: PREINCUBATION); “inactive; negative” under setting [3]; “inactive; negative” (Test System: AMES SALMONELLA TYPHIMURIUM, Strain/Indicator: TA1535, Metabolic Activation: RAT, LIVER, S-9, AROCLOR 1254 (10%), Method: PREINCUBATION); “inactive; negative” (Test System: AMES SALMONELLA TYPHIMURIUM, Strain/Indicator: TA1537, Metabolic Activation: HAMSTER, LIVER, S-9, AROCLOR 1254 (10%), Method: PREINCUBATION). The mutagenic call by setting is: (Test System: AMES SALMONELLA TYPHIMURIUM, Strain/Indicator: TA1537, Metabolic Activation: NONE, Method: PREINCUBATION) “inactive; negative”; (Test System: AMES SALMONELLA TYPHIMURIUM, Strain/Indicator: TA1537, Metabolic Activation: RAT, LIVER, S-9, AROCLOR 1254 (10%), Method: PREINCUBATION) “inactive; negative”.

As for `C#CC`, the mutagenic call (End Point: IN VITRO CHROMOSOMAL ABERRATIONS, Test System: CHL CELLS, Metabolic Activation: RAT, LIVER, S-9, SODIUM PHENOBARBITAL AND 5,6-BENZOFLAVONE) was “inactive; negative; authors report equivocal results for structural changes at the highest”; the mutagenic call (Test System: AMES SALMONELLA TYPHIMURIUM, Strain/Indicator: TA98, Metabolic Activation: NONE, Method: GAS EXPOSURE) is “inactive; negative”; the mutagenic call (Test System: AMES SALMONELLA TYPHIMURIUM, Strain/Indicator: TA98, Metabolic Activation: RAT LIVER S-9, PHENOBARBITAL AND BETA-NAPHTHOFLAVONE (40%), Method: GAS EXPOSURE) is “inactive; negative”; the mutagenic call (Test System: AMES SALMONELLA TYPHIMURIUM, Strain/Indicator: TA98, Metabolic Activation: RAT, LIVER, S-9, PHENOBARBITAL AND 5,6-BENZOFLAVONE, Method: GAS EXPOSURE) is “inactive; negative”; the mutagenic call (Test System: AMES SALMONELLA TYPHIMURIUM, Strain/Indicator: TA100, Metabolic Activation: NONE, Method: GAS EXPOSURE) was “inactive; negative”; the mutagenic call (Test System: AMES SALMONELLA TYPHIMURIUM, Strain/Indicator: TA100, Metabolic Activation: RAT LIVER S-9, PHENOBARBITAL AND BETA-NAPHTHOFLAVONE (40%), Method: GAS EXPOSURE) is “inactive; negative”. Besides, the mutagenic call reads like this: (Test System: AMES SALMONELLA TYPHIMURIUM, Strain/Indicator: TA100, Metabolic Activation: RAT, LIVER, S-9, PHENOBARBITAL AND 5,6-BENZOFLAVONE, Method: GAS EXPOSURE) “inactive; negative”; (Test System: AMES SALMONELLA TYPHIMURIUM, Strain/Indicator: TA1535, Metabolic Activation: NONE, Method: GAS EXPOSURE) “inactive; negative”; (Test System: AMES SALMONELLA TYPHIMURIUM, Strain/Indicator: TA1535, Metabolic Activation: RAT LIVER S-9, PHENOBARBITAL AND BETA-NAPHTHOFLAVONE (40%), Method: GAS EXPOSURE) “inactive; negative”; (Test System: AMES SALMONELLA TYPHIMURIUM, Strain/Indicator: TA1535, Metabolic Activation: RAT, LIVER, S-9, PHENOBARBITAL AND 5,6-BENZOFLAVONE, Method: GAS EXPOSURE) “inactive; negative”; (Test System: AMES SALMONELLA TYPHIMURIUM, Strain/Indicator: TA1537, Metabolic Activation: NONE, Method: GAS EXPOSURE) “inactive; negative”; (Test System: AMES SALMONELLA TYPHIMURIUM, Strain/Indicator: TA1537, Metabolic Activation: RAT LIVER S-9, PHENOBARBITAL AND BETA-NAPHTHOFLAVONE (40%), Method: GAS EXPOSURE) “inactive; negative”. Besides, the mutagenic call reads like this: (Test System: AMES SALMONELLA TYPHIMURIUM, Strain/Indicator: TA1537, Metabolic Activation: RAT, LIVER, S-9, PHENOBARBITAL AND 5,6-BENZOFLAVONE, Method: GAS EXPOSURE) “inactive; negative”; (Test System: E. COLI, Strain/Indicator: WP2 UVRA, Metabolic Activation: NONE, Method: GAS EXPOSURE) “active; positive”; (Test System: E. COLI, Strain/Indicator: WP2 UVRA, Metabolic Activation: RAT, LIVER, S-9, PHENOBARBITAL AND 5,6-BENZOFLAVONE, Method: GAS EXPOSURE) “active; positive”; (Test System: E.COLI, Strain/Indicator: WP2UVRA, Metabolic Activation: NONE, Method: GAS EXPOSURE) “active; positive”; (Test System: E.COLI, Strain/Indicator: WP2UVRA, Metabolic Activation: RAT LIVER S-9, PHENOBARBITAL AND BETA-NAPHTHOFLAVONE (40%), Method: GAS EXPOSURE) “active; positive”.

On to `O=c1c2ccccc2[nH]c2ccccc12`, for which, where the note is “Test System: AMES SALMONELLA TYPHIMURIUM, Strain/Indicator: TA100, Metabolic Activation: GUINEA PIG, LIVER, S-9, 3-METHYLCHOLANTHRENE, Method: STANDARD PLATE”, the mutagenic call was “inactive; negative”.
